Measured values: patent US20120115793A1, “PEPTIDOMIMETIC MACROCYCLES” (Alleron Therapeutics, Inc, priority 2008, published 2012)
Where a SMILES comes first, the peptide text is derived from it. Bridges are numbered along the chain shown (N, C = ends). [ ]: non-standard residue; d: D form. S5 = C=CCCC[C@](C)(N)C(=O)O

System: Molt-4 cell line
Format: cell-based
Details: 48 h
Experimental: Molt-4 cell line (ATCC catalog #CRL-1582) was grown in specific serum-supplemented media (RPMI-1640, Invitrogen catalog #72400) as recommended by ATCC. A day prior to the initiation of the study, cells were split at optimal cell density (2×10^5-5×10^5 cells/ml) to assure actively dividing cells. The next day, cells were washed twice in serum-free Opti-MEM media (Invitrogen, Catalog #51985) and cells were then plated at optimal cell density (10,000 cells/well) in 50 μl Opti-MEM media or Opti-MEM supplemented with 2%, 4% or 10% human serum (Bioreclamation, catalog #HMSRM) in 96-well white tissue culture plate (Nunc, catalog #136102).
For serum free experiment, peptidomimetic macrocycles were diluted from 2 mM stocks (100% DMSO) in sterile water to prepare 400 μM working solutions. The macrocycles and controls were diluted 10-fold first and then serially two-fold diluted in Opti-MEM in dosing plates to provide concentrations of between 1.2 and 40 μM. 50 μL of each dilution was then added to the appropriate wells of the test plate to achieve final concentrations of the polypeptides equal to between 0.6 to 20 μM. For studies using Opti-MEM supplemented with human serum (Bioreclamation, catalog #HMSRM), peptidomimetic macrocycles were diluted from 10 mM stocks (100% DMSO) in sterile water to prepare 2 mM working solutions. The peptide macrocycles and controls were diluted 10-fold first and then serially two-fold diluted in Opti-MEM in the presence of 2%, 4% or 10% of human serum to provide concentrations of the polypeptides equal to between 6.25 to 200 μM in dosing plates. 50 μL of each dilution was then added to the appropriate welts of the test plate to achieve final concentrations of the polypeptides equal to between 3.125 to 100 μM. Controls included wells without polypeptides containing the same concentration of DMSO as the wells containing the macrocycles, wells containing 0.1% Triton X-100 and wells containing no cells. Plates were incubated for 48 hours at 37° C. in humidified 5% CO2 atmosphere.
At the end of the incubation period, CellTiter-Glo assay was performed according to manufacturer's instructions (Promega, catalog #G7573) and luminescence was measured using Synergy HT Plate reader (BioTek).
The following macrocycles derived from the human MAML peptide sequences were tested in cell viability assays with the MOLT-4 tumor cell line: […]

Row | EC50 [µM] | SMILES
1 | > 20 | CC[C@H](C)[C@H](NC(=O)[C@H](CCCNC(=N)N)NC(=O)[C@H](CCCNC(=N)N)NC(=O)[C@H](CCCNC(=N)N)NC(=O)[C@H](CC(C)C)NC(=O)[C@H](CCCNC(=N)N)NC(=O)[C@H](CCC(=O)O)NC(C)=O)C(=O)N[C@@H](CCC(=O)O)C(=O)N[C@@H](CC(C)C)C(=O)N[C@@H](CS)C(=O)N[C@@H](CCCNC(=N)N)C(=O)N[C@@H](CCCNC(=N)N)C(=O)N[C@@H](Cc1c[nH]cn1)C(=O)N[C@@H](Cc1c[nH]cn1)C(=O)N[C@@H](CO)C(=O)N[C@H](C(N)=O)[C@@H](C)O [Compound 2, Ac-ERLRRRIELCRRHHST-NH2] (Ac-ERLRRRIELCRRHHST-NH2)
2 | 11.5 | CC[C@H](C)[C@H](NC(=O)[C@H](CCCNC(=N)N)NC(=O)[C@H](CCCNC(=N)N)NC(=O)[C@H](CCCNC(=N)N)NC(=O)[C@H](CC(C)C)NC(=O)[C@H](C)NC(=O)[C@H](CCC(=O)O)NC(C)=O)C(=O)N[C@@]1(C)CCCC=CCCC[C@@](C)(C(=O)N[C@@H](Cc2c[nH]cn2)C(=O)N[C@@H](Cc2c[nH]cn2)C(=O)N[C@@H](CO)C(=O)N[C@H](C(N)=O)[C@@H](C)O)NC(=O)[C@H](C)NC(=O)[C@H](CS)NC(=O)[C@H](CC(C)C)NC1=O [Compound 7, Ac-EALRRRI$LCA$HHST-NH2] (Ac-EALRRRI[S5]LCA[S5]HHST-NH2; staple 8-12)
3 | 11.5 | CC[C@H](C)[C@@H]1NC(=O)[C@H](CCCNC(=N)N)NC(=O)[C@H](CCCNC(=N)N)NC(=O)[C@@](C)(NC(=O)[C@H](CC(C)C)NC(=O)[C@H](CCC(=O)O)NC(=O)[C@H](CCCNC(=N)N)NC(C)=O)CCCC=CCCC[C@@](C)(C(=O)N[C@@H](CC(C)C)C(=O)N[C@@H](CS)C(=O)N[C@@H](CCCNC(=N)N)C(=O)N[C@@H](CCCNC(=N)N)C(=O)N[C@@H](Cc2c[nH]cn2)C(=O)N[C@@H](Cc2c[nH]cn2)C(=O)N[C@@H](CO)C(=O)N[C@H](C(N)=O)[C@@H](C)O)NC1=O [Compound 8, Ac-REL$RRI$LCRRHHST-NH2] (Ac-REL[S5]RRI[S5]LCRRHHST-NH2; staple 4-8)
4 | 2.2 | CC[C@H](C)[C@H](NC(=O)[C@H](CCCNC(=N)N)NC(=O)[C@H](CCCNC(=N)N)NC(=O)[C@H](CCCNC(=N)N)NC(=O)[C@H](CC(C)C)NC(=O)[C@H](CCCNC(=N)N)NC(=O)[C@H](CCC(=O)O)NC(C)=O)C(=O)N[C@@]1(C)CCCC=CCCC[C@@](C)(C(=O)N[C@@H](Cc2c[nH]cn2)C(=O)N[C@@H](Cc2c[nH]cn2)C(=O)N[C@@H](CO)C(=O)N[C@H](C(=O)N[C@@H](CS)C(=O)N[C@@H](CCC(=O)O)C(=O)N[C@@H](C)C(=O)N[C@@H](CCCNC(=N)N)C(=O)N[C@@H](Cc2ccc(O)cc2)C(=O)N[C@@H](CCC(=O)O)C(=O)N[C@@H](C)C(=O)N[C@H](C(N)=O)C(C)C)[C@@H](C)O)NC(=O)[C@H](CCCNC(=N)N)NC(=O)[C@H](CS)NC(=O)[C@H](CC(C)C)NC1=O [Compound 15, Ac-ERLRRRI$LCR$HHSTCEARYEAV-NH2] (Ac-ERLRRRI[S5]LCR[S5]HHSTCEARYEAV-NH2; staple 8-12)
5 | 11.7 | CC[C@H](C)[C@@H]1NC(=O)[C@@](C)(NC(=O)[C@H](CCCNC(=N)N)NC(=O)[C@H](CCCNC(=N)N)NC(=O)[C@H](CC(C)C)NC(=O)[C@H](CCCNC(=N)N)NC(=O)[C@H](CCC(=O)O)NC(C)=O)CCCC=CCCC[C@@](C)(C(=O)N[C@@H](CCCNC(=N)N)C(=O)N[C@@H](CCCNC(=N)N)C(=O)N[C@@H](Cc2c[nH]cn2)C(=O)N[C@@H](Cc2c[nH]cn2)C(=O)N[C@@H](CO)C(=O)N[C@H](C(N)=O)[C@@H](C)O)NC(=O)[C@H](CC(C)C)NC(=O)[C@H](CCC(=O)O)NC1=O [Compound 16, Ac-ERLRR$IEL$RRHHST-NH2] (Ac-ERLRR[S5]IEL[S5]RRHHST-NH2; staple 6-10)
6 | > 20 | CC[C@H](C)[C@H](NC(=O)[C@H](CCCNC(=N)N)NC(=O)[C@H](CCCNC(=N)N)NC(C)=O)C(=O)N[C@@H](CCC(=O)O)C(=O)N[C@@H](CC(C)C)C(=O)N[C@@H](C)C(=O)N[C@@H](CCCNC(=N)N)C(=O)N[C@@H](CCCNC(=N)N)C(=O)N[C@@H](Cc1c[nH]cn1)C(=O)N[C@@H](Cc1c[nH]cn1)C(=O)N[C@@]1(C)CCCC=CCCC[C@@](C)(C(=O)N[C@@H](CCCNC(=N)N)C(=O)N[C@@H](Cc2ccc(O)cc2)C(=O)N[C@@H](CCC(=O)O)C(=O)N[C@@H](C)C(=O)N[C@H](C(N)=O)C(C)C)NC(=O)[C@H](CCC(=O)O)NC(=O)[C@H](C)NC(=O)[C@H]([C@@H](C)O)NC1=O [Compound 17, Ac-RRIELARRHH$TAE$RYEAV-NH2] (Ac-RRIELARRHH[S5]TAE[S5]RYEAV-NH2; staple 11-15)
7 | > 20 | CC[C@H](C)[C@H](NC(=O)[C@H](CCCNC(=N)N)NC(=O)[C@H](CCCNC(=N)N)NC(C)=O)C(=O)N[C@@H](CCC(=O)O)C(=O)N[C@@H](CC(C)C)C(=O)N[C@@H](C)C(=O)N[C@@H](CCCNC(=N)N)C(=O)N[C@@H](CCCNC(=N)N)C(=O)N[C@@]1(C)CCCC=CCCC[C@@](C)(C(=O)N[C@@H](CCC(=O)O)C(=O)N[C@@H](C)C(=O)N[C@@H](CCCNC(=N)N)C(=O)N[C@@H](Cc2ccc(O)cc2)C(=O)N[C@@H](CCC(=O)O)C(=O)N[C@@H](C)C(=O)N[C@H](C(N)=O)C(C)C)NC(=O)[C@H]([C@@H](C)O)NC(=O)[C@H](CO)NC(=O)[C@H](Cc2c[nH]cn2)NC1=O [Compound 18, Ac-RRIELARR$HST$EARYEAV-NH2] (Ac-RRIELARR[S5]HST[S5]EARYEAV-NH2; staple 9-13)
8 | ≥ 24.4 | CC[C@H](C)[C@H](NC(=O)[C@H](CCCNC(=N)N)NC(=O)[C@H](CCCNC(=N)N)NC(=O)[C@H](CCCNC(=N)N)NC(=O)[C@H](CC(C)C)NC(=O)[C@H](C)NC(C)=O)C(=O)N[C@@]1(C)CCCC=CCCC[C@@](C)(C(=O)N[C@@H](Cc2c[nH]cn2)C(=O)N[C@@H](Cc2c[nH]cn2)C(=O)N[C@@H](CO)C(=O)N[C@H](C(N)=O)[C@@H](C)O)NC(=O)[C@H](C)NC(=O)[C@H](C)NC(=O)[C@H](CC(C)C)NC1=O [Compound 20, Ac-ALRRRI$LAA$HHST-NH2] (Ac-ALRRRI[S5]LAA[S5]HHST-NH2; staple 7-11)
9 | > 20 | CC[C@H](C)[C@H](NC(=O)[C@H](CCCNC(=N)N)NC(=O)[C@H](CCCNC(=N)N)NC(=O)[C@H](CCCNC(=N)N)NC(=O)[C@H](CC(C)C)NC(=O)[C@H](C)NC(C)=O)C(=O)N[C@@]1(C)CCCC=CCCC[C@@](C)(C(=O)N[C@@H](Cc2c[nH]cn2)C(=O)N[C@@H](Cc2c[nH]cn2)C(=O)N[C@@H](CO)C(=O)N[C@H](C(N)=O)[C@@H](C)O)NC(=O)[C@H](C)NC(=O)[C@H](CO)NC(=O)[C@H](CC(C)C)NC1=O [Compound 21, Ac-ALRRRI$LSA$HHST-NH2] (Ac-ALRRRI[S5]LSA[S5]HHST-NH2; staple 7-11)
10 | > 20 | CC[C@H](C)[C@H](NC(=O)[C@H](CCCNC(=N)N)NC(=O)[C@H](CCCNC(=N)N)NC(=O)[C@H](CCCNC(=N)N)NC(=O)[C@H](CC(C)C)NC(=O)[C@H](CCCNC(=N)N)NC(=O)[C@H](CCC(=O)O)NC(C)=O)C(=O)N[C@@H](CCC(=O)O)C(=O)N[C@@H](CC(C)C)C(=O)N[C@@H](C)C(=O)N[C@@H](C)C(=O)N[C@@H](CCCNC(=N)N)C(=O)N[C@@H](Cc1c[nH]cn1)C(=O)N[C@@H](Cc1c[nH]cn1)C(=O)N[C@@]1(C)CCCC=CCCC[C@@](C)(C(=O)N[C@@H](CCCNC(=N)N)C(=O)N[C@@H](Cc2ccc(O)cc2)C(=O)N[C@@H](CCC(=O)O)C(=O)N[C@@H](C)C(=O)N[C@H](C(N)=O)C(C)C)NC(=O)[C@H](CCC(=O)O)NC(=O)[C@H](C)NC(=O)[C@H]([C@@H](C)O)NC1=O [Compound 22, Ac-ERLRRRIELAARHH$TAE$RYEAV-NH2] (Ac-ERLRRRIELAARHH[S5]TAE[S5]RYEAV-NH2; staple 15-19)
